Source: PubChem BioAssay AID1963960 (Molecular Pharmacology Branch, DTP, NCI, 2024)

Tested on: MDA-MB-468 spheroids with HUVEC/MSC, viability
Assay: Anticancer human tumor MDA-MB-468 cell line growth inhibition [PI3K];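 also: spheroids exposed to agents for seven days before readout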;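 as to viability, T/C: 100% = DMSO vehicle control viability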
Settings: for IC50: curve of first compound; for viability, T/C: stronger effect = lower value
Text: Combinatorial screen of targeted agents with the PI3K inhibitors inavolisib, alpelisib, duvelisib, and copanlisib in multi-cell type tumor spheroids
A high-throughput screen of multi-cell type tumor spheroids was designed to identify active combinations of targeted small molecules and PI3K pathway inhibitors. Complex spheroids include a stromal component modeled by human endothelial cells (HUVEC) and fibroblasts modeled by human mesenchymal stem cells (MSCs). The concentration ranges selected for each drug and investigational agent were based upon clinically achievable concentrations if the clinical Cmax of the agent was known.
Compounds. The drugs and investigational agents: inavolisib (NSC800729), alpelisib (NSC765974), duvelisib (NSC772469), copanlisib (NSC816437), ipatasertib (NSC767898), afuresertib (NSC778305), talazoparib (NSC767125), sapanisertib (NSC764658), selumetinib (NSC741078), tovorafenib (DAY101, NSC766906), vemurafenib (NSC761431), ravoxertinib (NSC781343), sotorasib (NSC818433), MRTX1133 (NSC 836407), abemaciclib (NSC 768073), palbociclib (NSC758247), venetoclax (NSC 766270), SY5609 (NSC837396), enzalutamide (NSC755605), and darolutamide (NSC825331), were obtained from the National Cancer Institute (NCI) Developmental Therapeutics Program Chemical Repository. The FDA-approved anticancer drug set is available from the NCI Developmental Therapeutics Program. […] The stock solutions were prepared in dimethyl sulfoxide (DMSO, Sigma-Aldrich, St. Louis, MO, cat. D2650) at 800-fold the tested concentration and stored at -70 degrees C prior to their use. All drugs and investigational agents were tested over a range starting from a high concentration at or near the clinical Cmax and decreasing in half-log increments. If the clinical Cmax for an agent had not been determined, the highest concentration tested was 10 microM.
Cell Culture. All cells were maintained in an incubator at 37 degrees C and 5% CO2 with 95% humidity. The PDC lines were cultured according to standard operating procedures established by the NCI PDMR (https://pdmr.cancer.gov/sops/default.htm). All PDCs were thawed and cultured in Matrigel-coated flasks prepared with a working solution of 1X Ham's F-12 nutrient mix, without supplementation (Invitrogen, Waltham, MA, cat. 11765054), 100 U/mL penicillin-streptomycin (Invitrogen, cat. 15140122), and 2.5% Matrigel (Corning Inc., Corning, NY, cat. 354248) for the first three passages. The 354836-022-R-J1-PDC, 475296-252-R-J1-PDC, and 997726-040-R-J2-PDC lines were cultured in 6A media, which includes advanced DMEM/F-12 (Thermo Fisher Scientific, cat. 12634028), 10 mM HEPES (Thermo Fisher Scientific, cat. 15630080), 1X GlutaMAX supplement (Thermo Fisher Scientific, cat. 35050061), 0.1 mg/mL primocin (InvivoGen, San Diego, CA, cat. ant-pm-2), 10% defined fetal bovine serum, heat inactivated (HyClone Laboratories Inc., Logan, UT, cat. SH30070.03HI), 50% L-WRN conditioned media (ATCC, cat. CRL-3276), 1.25 mM N-Acetyl-L-cysteine (Sigma-Aldrich, cat. A9165), 10 mM nicotinamide (Sigma-Aldrich, cat. N0636), 1X B-27 supplement (Thermo Fisher Scientific, cat. 17504044), 1X N-2 supplement (Thermo Fisher Scientific, cat. 17502048), and 10 microM Y-27632 dihydrochloride (Tocris Bioscience, Bristol, United Kingdom, cat. 1254). The 624824-186-R-J2-PDC line was cultured in 6C/Colon 1B media, which includes all 6A media components plus 50 ng/mL human EGF recombinant protein (Thermo Fisher Scientific, cat. PHG0311). […]

[1] = second compound 0.00316 µM, first compound 0.0316 µM
[2] = second compound 0.00316 µM, first compound 0.1 µM
[3] = second compound 0.01 µM, first compound 0.0316 µM
[4] = second compound 0.01 µM, first compound 0.1 µM
[5] = second compound 0.0316 µM, first compound 0.0316 µM
[6] = second compound 0.0316 µM, first compound 0.1 µM
[7] = second compound 0.1 µM, first compound 0.0316 µM
[8] = second compound 0.1 µM, first compound 0.1 µM
[9] = second compound 0.316 µM, first compound 0.0316 µM
[10] = second compound 0.316 µM, first compound 0.1 µM
[11] = second compound 1 µM, first compound 0.0316 µM
[12] = second compound 1 µM, first compound 0.1 µM

CC(C)n1nc(-c2ccc3oc(N)nc3c2)c2c(N)ncnc21 + CC(Nc1ccc2c(c1)OCCn1cc(N3C(=O)OCC3C(F)F)nc1-2)C(N)=O
IC50 (second compound 0.00316 µM): 48.5 nM | IC50 (second compound 0.01 µM): 41.8 nM | IC50 (second compound 0.0316 µM): 38.5 nM | IC50 (second compound 0.1 µM): 36.7 nM | IC50 (second compound 0.316 µM): 31.2 nM | IC50 (second compound 1 µM): 23 nM | viability, T/C (second compound 0.00316 µM, first compound 0.000316 µM): 89.9% | viability, T/C (second compound 0.00316 µM, first compound 0.001 µM): 100% | viability, T/C (second compound 0.00316 µM, first compound 0.00316 µM): 91.8% | viability, T/C (second compound 0.00316 µM, first compound 0.01 µM): 92.6% | viability, T/C [1]: 69.5% | viability, T/C [2]: 16.7% | viability, T/C (second compound 0.01 µM, first compound 0.000316 µM): 95.1% | viability, T/C (second compound 0.01 µM, first compound 0.001 µM): 96.8% | viability, T/C (second compound 0.01 µM, first compound 0.00316 µM): 88% | viability, T/C (second compound 0.01 µM, first compound 0.01 µM): 99% | viability, T/C [3]: 59.2% | viability, T/C [4]: 21.1% | viability, T/C (second compound 0.0316 µM, first compound 0.000316 µM): 100% | viability, T/C (second compound 0.0316 µM, first compound 0.001 µM): 94.8% | viability, T/C (second compound 0.0316 µM, first compound 0.00316 µM): 77.4% | viability, T/C (second compound 0.0316 µM, first compound 0.01 µM): 83% | viability, T/C [5]: 58.5% | viability, T/C [6]: 15% | viability, T/C (second compound 0.1 µM, first compound 0.000316 µM): 103% | viability, T/C (second compound 0.1 µM, first compound 0.001 µM): 82.4% | viability, T/C (second compound 0.1 µM, first compound 0.00316 µM): 87.8% | viability, T/C (second compound 0.1 µM, first compound 0.01 µM): 82.3% | viability, T/C [7]: 54.2% | viability, T/C [8]: 11.8% | viability, T/C (second compound 0.316 µM, first compound 0.000316 µM): 87.2% | viability, T/C (second compound 0.316 µM, first compound 0.001 µM): 82.8% | viability, T/C (second compound 0.316 µM, first compound 0.00316 µM): 87.6% | viability, T/C (second compound 0.316 µM, first compound 0.01 µM): 84.9% | viability, T/C [9]: 49.6% | viability, T/C [10]: 12.7% | viability, T/C (second compound 1 µM, first compound 0.000316 µM): 105% | viability, T/C (second compound 1 µM, first compound 0.001 µM): 80.8% | viability, T/C (second compound 1 µM, first compound 0.00316 µM): 75.2% | viability, T/C (second compound 1 µM, first compound 0.01 µM): 70.8% | viability, T/C [11]: 46.6% | viability, T/C [12]: 12.3%

CCCS(=O)(=O)Nc1ccc(F)c(C(=O)c2c[nH]c3ncc(-c4ccc(Cl)cc4)cc23)c1F + CC(Nc1ccc2c(c1)OCCn1cc(N3C(=O)OCC3C(F)F)nc1-2)C(N)=O
IC50 (second compound 0.00316 µM): 5330 nM | IC50 (second compound 0.01 µM): 5160 nM | IC50 (second compound 0.0316 µM): 5070 nM | IC50 (second compound 0.1 µM): 4530 nM | IC50 (second compound 0.316 µM): 3620 nM | IC50 (second compound 1 µM): 3720 nM | viability, T/C [1]: 89.1% | viability, T/C [2]: 114% | viability, T/C (second compound 0.00316 µM, first compound 0.316 µM): 100% | viability, T/C (second compound 0.00316 µM, first compound 1 µM): 94.4% | viability, T/C (second compound 0.00316 µM, first compound 3.16 µM): 78.9% | viability, T/C (second compound 0.00316 µM, first compound 10 µM): 15.6% | viability, T/C [3]: 101% | viability, T/C [4]: 90% | viability, T/C (second compound 0.01 µM, first compound 0.316 µM): 90.6% | viability, T/C (second compound 0.01 µM, first compound 1 µM): 104% | viability, T/C (second compound 0.01 µM, first compound 3.16 µM): 74.8% | viability, T/C (second compound 0.01 µM, first compound 10 µM): 16.4% | viability, T/C [5]: 106% | viability, T/C [6]: 98.7% | viability, T/C (second compound 0.0316 µM, first compound 0.316 µM): 86.8% | viability, T/C (second compound 0.0316 µM, first compound 1 µM): 103% | viability, T/C (second compound 0.0316 µM, first compound 3.16 µM): 74.8% | viability, T/C (second compound 0.0316 µM, first compound 10 µM): 14.2% | viability, T/C [7]: 95.4% | viability, T/C [8]: 90.6% | viability, T/C (second compound 0.1 µM, first compound 0.316 µM): 85.6% | viability, T/C (second compound 0.1 µM, first compound 1 µM): 94.5% | viability, T/C (second compound 0.1 µM, first compound 3.16 µM): 66.2% | viability, T/C (second compound 0.1 µM, first compound 10 µM): 14.5% | viability, T/C [9]: 95.6% | viability, T/C [10]: 89.1% | viability, T/C (second compound 0.316 µM, first compound 0.316 µM): 79.2% | viability, T/C (second compound 0.316 µM, first compound 1 µM): 94.1% | viability, T/C (second compound 0.316 µM, first compound 3.16 µM): 55% | viability, T/C (second compound 0.316 µM, first compound 10 µM): 12.1% | viability, T/C [11]: 85.3% | viability, T/C [12]: 88.3% | viability, T/C (second compound 1 µM, first compound 0.316 µM): 78.7% | viability, T/C (second compound 1 µM, first compound 1 µM): 67.2% | viability, T/C (second compound 1 µM, first compound 3.16 µM): 61.4% | viability, T/C (second compound 1 µM, first compound 10 µM): 11%
